pIC50, pKi: −log10 of the molar value.
Tests used:
Type in all cases: biochemical
hPDE8B = biological target: T1, hPDE8B (Homo sapiens, UniProt O95263); assay: PDE7 selectivity test (Ki value), Experimental Example 2: hPDE8B; conditions: Ki from IC50 by Cheng-Prusoff, read-out: PDE inhibition constant Ki, PDE8
T1 construct: purchased SB Drug Discovery
Description: (§1) hPDE1A, hPDE2A, hPDE3A, hPDE4D, hPDE5A, and hPDE8B were purchased from SB Drug Discovery. hPDE7B was isolated by the same method as [Method for preparing samples 1], and hPDE9A, hPDE10A, and hPDE11A were isolated by the same method as hPDE7B, i.e., isolated from COS-7 cells transfected with plasmids encoding each PDE. PDE6 was purified and isolated from bovine retina (bovine PDE6).
(§2) Prior to the calculation of Ki value, Km value of each PDE against cAMP or cGMP was calculated. Each PDE diluted with an assay buffer so that it would have an appropriate enzyme activity, and six or more concentrations of cAMP or cGMP were reacted at room temperature for 60 minutes. Regarding PDE using cAMP as a substrate, PDELight (trademark) HTS cAMP phosphodiesterase Kit (Lonza) was used to measure a degradation product, 5′-AMP. Also, regarding PDE using cGMP as a substrate, […] of perchloric acid was added to the mixture to stop the reaction, and the resulting mixture was subjected to LC-MS/MS to measure the residual cGMP concentration. The amount of degraded substrate in each substrate concentration was calculated, the concentration of the added substrate was plotted on the horizontal axis, the amount of degraded substrate was plotted on the vertical axis, and Km value was calculated by non-linear regression on the basis of Michaelis-Menten equation. Km value (substrate) of each PDE was hPDE1A: 4.3 (cGMP), hPDE2A: 36 (cAMP), hPDE3A: 0.11 (cAMP), hPDE4D: 0.90 (cAMP), hPDE5A: 3.9 (cGMP), bovine PDE6:9.8 (cGMP), hPDE7B: 0.015 (cAMP), hPDE8B: 0.63 (cAMP), hPDE9A: 0.0037 (cGMP), hPDE10A: 0.051 (cAMP), and hPDE11A: 1.4 (cAMP) μmol/L, respectively.
(§3) Next, PDE inhibition assay of a compound was carried out using each PDE. The PDE inhibition assay was basically carried out by the same enzyme reaction method as [Assay procedure 1], and the degraded amount of cAMP or cGMP was measured by the same method as [Assay procedure 2]. In the assay, a concentration approximated to Km value of each PDE against cAMP or cGMP was used as a substrate concentration. Meanwhile, regarding hPDE5A, hPDE8B, and hPDE9A, IMAP (trademark) FP Phosphodiesterase Evaluation Assay Kit (Molecular Devices) was used to measure the degradation of FAM-cAMP or FAM-cGMP by fluorescence depolarization technique.
(§4) Each compound was evaluated at six or more concentrations with common ratio 10. Each inhibition rate was calculated according to <Method for data calculation 1>, and then each IC50 value was calculated by sigmoid regression. The resulting IC50 value was used in the following Cheng-Prusoff equation to calculate each Ki value. Ki=IC50/(1+[S]/Km), wherein [S] represents a substrate concentration used

hPDE10A [1] = biological target: T2, hPDE10A (Homo sapiens, UniProt Q9Y233); assay: PDE7 selectivity test (Ki value), Experimental Example 2: hPDE10A; conditions: Ki from IC50 by Cheng-Prusoff, read-out: PDE inhibition constant Ki, PDE10
T2 sequence (Q9Y233 290-1055 limits assumed): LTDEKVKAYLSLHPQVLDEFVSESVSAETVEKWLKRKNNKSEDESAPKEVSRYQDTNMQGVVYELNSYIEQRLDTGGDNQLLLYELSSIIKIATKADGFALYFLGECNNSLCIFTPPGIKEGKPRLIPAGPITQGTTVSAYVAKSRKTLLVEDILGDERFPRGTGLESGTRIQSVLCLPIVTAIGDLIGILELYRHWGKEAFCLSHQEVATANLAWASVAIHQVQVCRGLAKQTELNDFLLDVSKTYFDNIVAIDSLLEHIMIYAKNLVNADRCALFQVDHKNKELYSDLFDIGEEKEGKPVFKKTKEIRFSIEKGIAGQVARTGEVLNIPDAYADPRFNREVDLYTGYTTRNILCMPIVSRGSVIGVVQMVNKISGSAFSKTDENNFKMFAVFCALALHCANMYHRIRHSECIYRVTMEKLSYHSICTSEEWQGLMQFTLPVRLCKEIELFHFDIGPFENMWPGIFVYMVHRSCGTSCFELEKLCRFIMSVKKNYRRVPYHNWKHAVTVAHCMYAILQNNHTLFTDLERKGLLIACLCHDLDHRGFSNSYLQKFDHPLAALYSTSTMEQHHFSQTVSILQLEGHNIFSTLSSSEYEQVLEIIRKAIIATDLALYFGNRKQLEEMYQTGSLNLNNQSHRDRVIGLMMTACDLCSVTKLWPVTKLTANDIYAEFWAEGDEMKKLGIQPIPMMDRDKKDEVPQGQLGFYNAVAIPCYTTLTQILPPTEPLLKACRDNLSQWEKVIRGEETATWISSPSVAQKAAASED
Description: as §1, §2, §3, §4

hPDE11A = biological target: T3, hPDE11A (Homo sapiens, UniProt Q9HCR9); assay: PDE7 selectivity test (Ki value), Experimental Example 2: hPDE11A; conditions: Ki from IC50 by Cheng-Prusoff, read-out: PDE inhibition constant Ki, PDE11
T3 construct: made in house; host or cells: COS-7 cells
T3 sequence (Q9HCR9 whole entry): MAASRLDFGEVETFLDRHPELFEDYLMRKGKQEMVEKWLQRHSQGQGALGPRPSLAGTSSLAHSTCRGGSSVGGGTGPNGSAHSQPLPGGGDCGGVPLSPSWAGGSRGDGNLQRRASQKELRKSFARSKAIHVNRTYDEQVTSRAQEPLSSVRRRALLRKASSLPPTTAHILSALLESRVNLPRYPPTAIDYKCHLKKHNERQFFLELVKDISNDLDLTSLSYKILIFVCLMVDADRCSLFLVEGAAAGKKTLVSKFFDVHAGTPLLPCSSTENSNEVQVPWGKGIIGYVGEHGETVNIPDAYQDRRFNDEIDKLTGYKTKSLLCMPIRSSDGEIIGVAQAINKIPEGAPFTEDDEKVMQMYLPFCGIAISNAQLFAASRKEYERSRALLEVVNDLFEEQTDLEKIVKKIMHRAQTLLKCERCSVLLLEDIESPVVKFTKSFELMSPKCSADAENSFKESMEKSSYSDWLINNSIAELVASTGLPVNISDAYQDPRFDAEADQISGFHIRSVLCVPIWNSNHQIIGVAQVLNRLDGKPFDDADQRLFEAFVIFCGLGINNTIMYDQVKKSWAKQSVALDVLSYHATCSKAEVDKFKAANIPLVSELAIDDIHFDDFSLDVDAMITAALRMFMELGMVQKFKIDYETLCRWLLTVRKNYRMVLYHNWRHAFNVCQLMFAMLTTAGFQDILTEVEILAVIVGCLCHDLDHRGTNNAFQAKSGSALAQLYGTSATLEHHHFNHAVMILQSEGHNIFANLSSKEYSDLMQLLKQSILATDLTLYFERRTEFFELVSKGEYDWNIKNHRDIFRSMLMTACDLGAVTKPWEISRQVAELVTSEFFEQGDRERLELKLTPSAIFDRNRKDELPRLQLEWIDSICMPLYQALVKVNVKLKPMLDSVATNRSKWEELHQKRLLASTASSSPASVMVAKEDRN
Description: as §1, §2, §3, §4

hPDE4D = biological target: T4, hPDE4D (Homo sapiens, UniProt Q08499); assay: PDE4 inhibition assay (IC50), Experimental Example 3; conditions: hPDE4D; read-out: PDE inhibition assay IC50, PDE4
T4 construct: purchased SB Drug Discovery
T4 sequence (Q08499 whole entry): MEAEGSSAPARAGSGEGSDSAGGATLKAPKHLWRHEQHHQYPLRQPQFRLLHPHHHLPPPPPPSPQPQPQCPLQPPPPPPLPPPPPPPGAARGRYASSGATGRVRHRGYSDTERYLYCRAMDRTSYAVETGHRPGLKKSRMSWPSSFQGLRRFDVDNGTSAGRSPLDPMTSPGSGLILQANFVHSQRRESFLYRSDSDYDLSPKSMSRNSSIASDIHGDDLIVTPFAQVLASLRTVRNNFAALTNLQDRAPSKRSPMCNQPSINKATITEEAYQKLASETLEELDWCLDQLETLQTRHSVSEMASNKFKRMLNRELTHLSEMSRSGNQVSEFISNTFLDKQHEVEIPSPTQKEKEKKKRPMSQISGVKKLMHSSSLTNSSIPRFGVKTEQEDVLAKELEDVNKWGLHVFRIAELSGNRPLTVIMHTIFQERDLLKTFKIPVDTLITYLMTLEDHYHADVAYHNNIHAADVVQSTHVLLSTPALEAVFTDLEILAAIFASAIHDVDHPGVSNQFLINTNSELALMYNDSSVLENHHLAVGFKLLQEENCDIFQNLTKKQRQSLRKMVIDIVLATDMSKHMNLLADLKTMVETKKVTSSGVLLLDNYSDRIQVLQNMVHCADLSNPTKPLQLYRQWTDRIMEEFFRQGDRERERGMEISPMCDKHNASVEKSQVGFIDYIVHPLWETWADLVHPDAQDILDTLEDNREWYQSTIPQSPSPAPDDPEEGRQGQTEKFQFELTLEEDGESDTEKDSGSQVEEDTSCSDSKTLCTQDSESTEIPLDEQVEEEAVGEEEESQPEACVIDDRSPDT
How it was run: (§5)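 Recombinant human enzymes incubated with compound and 3 nmol/L cAMP (final) in Tris-HCl pH 7.5 buffer with MgCl2, BSA, DTT, 2% DMSO final, 60 min at room temperature. Residual cAMP measured by TR-FRET (LANCE Ultra), reaction stopped with 0.5 mmol/L IBMX. IC50 from inhibition relative to no-compound (0%) and no-enzyme (100%) controls.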

hPDE10A [2] = biological target: T2, hPDE10A; assay: PDE10 inhibition assay (IC50), Experimental Example 3; conditions: for inhibition at 10 µM: at 10 μmol/L, read-out: inhibition rate (%) at prescribed concentration, PDE10; for pIC50: hPDE10A, read-out: PDE inhibition assay IC50, PDE10
How it was run: as §5

T1 sequence (O95263 whole entry): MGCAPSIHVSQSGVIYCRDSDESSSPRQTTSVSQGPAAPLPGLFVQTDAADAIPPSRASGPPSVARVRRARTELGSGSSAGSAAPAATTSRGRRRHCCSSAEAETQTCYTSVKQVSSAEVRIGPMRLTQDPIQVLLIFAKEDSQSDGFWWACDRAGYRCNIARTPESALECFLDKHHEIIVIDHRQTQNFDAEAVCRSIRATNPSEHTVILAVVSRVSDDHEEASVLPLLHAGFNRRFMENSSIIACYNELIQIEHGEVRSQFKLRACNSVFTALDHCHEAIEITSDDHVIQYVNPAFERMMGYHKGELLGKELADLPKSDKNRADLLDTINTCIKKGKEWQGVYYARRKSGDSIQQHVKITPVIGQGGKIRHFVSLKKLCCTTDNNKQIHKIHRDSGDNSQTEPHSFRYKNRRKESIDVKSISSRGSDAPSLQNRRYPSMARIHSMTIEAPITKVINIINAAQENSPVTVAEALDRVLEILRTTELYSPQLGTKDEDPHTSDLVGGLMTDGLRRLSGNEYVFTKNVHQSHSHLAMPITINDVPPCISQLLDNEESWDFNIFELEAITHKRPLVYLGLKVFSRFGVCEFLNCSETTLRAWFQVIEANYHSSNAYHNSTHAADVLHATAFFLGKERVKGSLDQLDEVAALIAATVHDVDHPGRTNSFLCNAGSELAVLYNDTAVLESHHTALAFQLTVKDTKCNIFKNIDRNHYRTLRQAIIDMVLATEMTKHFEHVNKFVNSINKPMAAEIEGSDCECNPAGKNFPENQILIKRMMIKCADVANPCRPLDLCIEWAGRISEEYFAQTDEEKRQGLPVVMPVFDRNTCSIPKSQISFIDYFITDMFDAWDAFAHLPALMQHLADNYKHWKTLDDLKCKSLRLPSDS

Row | pKi (hPDE8B) | pKi (hPDE10A [1]) | pKi (hPDE11A) | pIC50 (hPDE4D) | inhibition at 10 µM (hPDE10A [2]) | pIC50 (hPDE10A [2]) | SMILES
1 | 6.11 | 4.92 | 4.54 | 5.11 | 27% |  | Nc1ncnc2c1nnn2C1CCCCC1 [Example 3, 3-cyclohexyl-3H-[1,2,3]triazolo[4,5-d]pyrimidin-7-amine]
2 | 7.07 | 5.96 | < 5.30 | 6.27 |  | 5.76 | Cc1nc(N)c2nnn(C3CCCCC3)c2n1 [Example 4]
3 | 5.28 | 5.62 |  | 5.04 |  | 5.46 | CC1CCCCC1n1nnc2c(N)ncnc21 (single isomer, unassigned) [Example 191, 3-(cis-2-methylcyclohexyl)-3H-[1,2,3]triazolo[4,5-d]pyrimidin-7-amine]
4 | 5.85 | < 5.29 | < 5.30 | 5.21 | 30% |  | Nc1nccn2c(C3CCCCC3)nnc12 [Example 141, 3-cyclohexyl[1,2,4]triazolo[4,3-a]pyrazin-8-amine]
5 | 5.85 | 5.59 | 4.34 | 5.82 |  | 5.53 | C[C@@H]1CCC[C@H](c2nnc3c(N)nccn23)C1 [Example 204, 3-[(1S,3R)-3-methylcyclohexyl][1,2,4]triazolo[4,3-a]pyrazin-8-amine]

Source: US20190185479A1, “BICYCLIC NITROGENATED HETEROCYCLIC COMPOUND” (MITSUBISHI TANABE PHARMA CORPORATION, priority 2016, published 2019)
